Laboratory results as given in paper PMC8899467 (Frontiers in Pharmacology, 2022).

Key:
bovine fibrinogen = target: T1, bovine fibrinogen (Bos taurus, UniProt P02672+P02676+P12799); experiment: intrinsic Trp fluorescence quenching; type: binding; conditions: 0.8 mg/ml fibrinogen, Tyrode buffer pH 7.4, 37 °C, 15 min
T1 construct: gene FGA; native plasma protein, Sigma-Aldrich; hexamer
T1 sequence (P02672 20-615): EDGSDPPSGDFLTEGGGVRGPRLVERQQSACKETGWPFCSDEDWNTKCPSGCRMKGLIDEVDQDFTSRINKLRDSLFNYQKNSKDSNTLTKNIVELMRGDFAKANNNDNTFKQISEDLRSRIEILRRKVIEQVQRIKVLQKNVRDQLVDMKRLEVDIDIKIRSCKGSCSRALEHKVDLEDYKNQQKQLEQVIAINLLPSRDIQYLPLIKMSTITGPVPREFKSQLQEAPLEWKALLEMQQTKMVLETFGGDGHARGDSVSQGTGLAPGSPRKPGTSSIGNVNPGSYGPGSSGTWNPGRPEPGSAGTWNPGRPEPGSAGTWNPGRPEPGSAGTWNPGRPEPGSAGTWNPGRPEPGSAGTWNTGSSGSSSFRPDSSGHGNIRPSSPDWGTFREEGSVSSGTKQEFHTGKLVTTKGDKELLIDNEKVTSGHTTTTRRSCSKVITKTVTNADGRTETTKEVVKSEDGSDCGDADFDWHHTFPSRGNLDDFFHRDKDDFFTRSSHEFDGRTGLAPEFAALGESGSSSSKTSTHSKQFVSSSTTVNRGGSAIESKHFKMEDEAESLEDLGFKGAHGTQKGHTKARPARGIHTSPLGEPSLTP
T1 sequence (P02676 1-468): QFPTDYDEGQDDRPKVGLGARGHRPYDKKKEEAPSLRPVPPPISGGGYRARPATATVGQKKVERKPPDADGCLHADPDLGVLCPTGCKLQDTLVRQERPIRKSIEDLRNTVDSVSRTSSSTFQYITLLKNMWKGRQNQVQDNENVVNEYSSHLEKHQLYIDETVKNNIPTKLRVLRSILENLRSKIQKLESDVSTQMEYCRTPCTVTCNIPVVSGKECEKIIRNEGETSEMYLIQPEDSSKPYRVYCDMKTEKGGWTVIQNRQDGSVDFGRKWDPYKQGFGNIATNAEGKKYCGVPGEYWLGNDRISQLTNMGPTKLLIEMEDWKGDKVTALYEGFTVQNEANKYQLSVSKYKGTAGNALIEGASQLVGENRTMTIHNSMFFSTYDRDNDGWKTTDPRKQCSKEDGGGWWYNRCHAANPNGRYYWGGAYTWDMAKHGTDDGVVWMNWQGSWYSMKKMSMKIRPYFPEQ
T1 sequence (P12799 25-444): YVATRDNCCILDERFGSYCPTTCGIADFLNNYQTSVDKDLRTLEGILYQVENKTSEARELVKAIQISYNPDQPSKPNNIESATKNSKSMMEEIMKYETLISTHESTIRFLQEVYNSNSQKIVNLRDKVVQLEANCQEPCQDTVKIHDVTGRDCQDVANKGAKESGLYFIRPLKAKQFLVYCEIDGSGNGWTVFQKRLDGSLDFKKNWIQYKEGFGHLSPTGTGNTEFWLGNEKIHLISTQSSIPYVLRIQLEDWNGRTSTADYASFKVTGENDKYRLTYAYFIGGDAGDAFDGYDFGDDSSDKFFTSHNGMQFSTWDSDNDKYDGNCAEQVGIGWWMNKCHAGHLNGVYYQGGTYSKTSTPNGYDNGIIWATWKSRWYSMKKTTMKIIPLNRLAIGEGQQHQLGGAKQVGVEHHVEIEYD

[1] = target: T2, bovine serum albumin (BSA) (Bos taurus, UniProt P02769); experiment: intrinsic Trp fluorescence quenching; type: binding; conditions: 0.8 mg/ml BSA, Tyrode buffer pH 7.4, 37 °C, 15 min
T2 construct: gene ALB; native mature serum albumin
T2 sequence (P02769 25-607): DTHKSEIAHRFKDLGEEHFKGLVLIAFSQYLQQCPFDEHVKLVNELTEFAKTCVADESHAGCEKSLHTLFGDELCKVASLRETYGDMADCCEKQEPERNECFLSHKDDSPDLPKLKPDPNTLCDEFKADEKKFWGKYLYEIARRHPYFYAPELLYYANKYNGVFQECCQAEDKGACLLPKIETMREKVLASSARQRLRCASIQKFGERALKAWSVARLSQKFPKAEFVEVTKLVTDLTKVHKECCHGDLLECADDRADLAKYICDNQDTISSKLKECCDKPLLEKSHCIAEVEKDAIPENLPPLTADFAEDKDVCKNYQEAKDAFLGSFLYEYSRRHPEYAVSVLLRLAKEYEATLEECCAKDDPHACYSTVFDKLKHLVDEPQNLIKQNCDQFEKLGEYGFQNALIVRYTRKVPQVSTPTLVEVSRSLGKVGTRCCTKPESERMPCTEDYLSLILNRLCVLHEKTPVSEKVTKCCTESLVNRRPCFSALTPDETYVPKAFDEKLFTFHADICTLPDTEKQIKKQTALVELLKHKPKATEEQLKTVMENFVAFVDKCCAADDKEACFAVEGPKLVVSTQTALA

In the case of `C[C@@H]1O[C@@H](OC[C@H]2O[C@@H](Oc3c(-c4ccc(O)c(O)c4)oc4cc(O)cc(O)c4c3=O)[C@H](O)[C@@H](O)[C@@H]2O)[C@H](O)[C@H](O)[C@H]1O` [rutin], the “intrinsic Trp fluorescence quenching” value (bovine fibrinogen) is reported as “Pre-incubation of rutin and RS with fibrinogen (Figures 6A,B) or albumin (Figures 6C,D) decreased the fluorescence” and the “intrinsic Trp fluorescence quenching” value [1] is reported as “or albumin (Figures 6C,D) decreased the fluorescence of their Trp residues”.
